Laboratory results published in ChEMBL document CHEMBL3508140 (2016).

Assays:
[1] = (§1) Excretory balance of radioactivity in faeces following intravenous 14C-epirubicin at 1 mg.Kg-1 dose in rat; type: ADME, organism-based, SD, Feces; design: dose 1 mg.Kg-1, dosed compound id 2.46808e+06, dosed compound name 14C-Epirubicin, route intravenous, sampling time 0-8 h; conditions: in vivo
[2] = (§2) Excretory balance of radioactivity in urine following intravenous 14C-epirubicin at 0.45 ug.eq.Kg-1 dose in rat; type: ADME, organism-based, SD; design: dose 0.45 ug.eq.Kg-1, dosed compound id 2.46808e+06, dosed compound name 14C-Epirubicin, route intravenous, sampling time 0-6 h, study doses 0.45 ug.eq.Kg-1; conditions: in vivo
[3] = (§3) Excretory balance of radioactivity in bile following intravenous 14C-epirubicin at 1 mg.Kg-1 dose in rat; type: ADME, organism-based, SD; design: dose 1 mg.Kg-1, dosed compound id 2.46808e+06, dosed compound name 14C-Epirubicin, route intravenous, sampling time 0-12 h; conditions: in vivo
[4] = (§4) Excretory balance of radioactivity in faeces following intravenous 14C-epirubicin at 0.45 ug.eq.Kg-1 dose in rat; type: ADME, organism-based, SD, Feces; design: dose 0.45 ug.eq.Kg-1, dosed compound id 2.46808e+06, dosed compound name 14C-Epirubicin, route intravenous, sampling time 0-6 h, study doses 0.45 ug.eq.Kg-1; conditions: in vivo
[5] = (§5) Excretory balance of radioactivity in urine following intravenous 14C-epirubicin at 1 mg.Kg-1 dose in rat; type: ADME, organism-based, SD; design: dose 1 mg.Kg-1, dosed compound id 2.46808e+06, dosed compound name 14C-Epirubicin, route intravenous, sampling time 0-4 h; conditions: in vivo
[6] = as §5; type: ADME, organism-based, SD; design: dose 1 mg.Kg-1, dosed compound id 2.46808e+06, dosed compound name 14C-Epirubicin, route intravenous, sampling time 0-6 h; conditions: in vivo
[7] = as §3; type: ADME, organism-based, SD; design: dose 1 mg.Kg-1, dosed compound id 2.46808e+06, dosed compound name 14C-Epirubicin, route intravenous, sampling time 0-24 h; conditions: in vivo
[8] = Decrease in leukocytes observed following reference intravenous doxorubicin at 1 mg.Kg-1 per week in rat; type: toxicity, organism-based, SD, Blood; design: dose 1 mg.Kg-1, dosed compound id 2.46809e+06, dosed compound name Doxorubicin, dose level High, gender Mixed, regimen Once per week, route intravenous, sampling time 36 Week, study doses 0/0.3/0.6/1 mg.Kg-1; conditions: in vivo
[9] = as §1; type: ADME, organism-based, SD, Feces; design: dose 1 mg.Kg-1, dosed compound id 2.46808e+06, dosed compound name 14C-Epirubicin, route intravenous, sampling time 0-2 h; conditions: in vivo
[10] = as §3; type: ADME, organism-based, SD; design: dose 1 mg.Kg-1, dosed compound id 2.46808e+06, dosed compound name 14C-Epirubicin, route intravenous, sampling time 0-2 h; conditions: in vivo
[11] = as §3; type: ADME, organism-based, SD; design: dose 1 mg.Kg-1, dosed compound id 2.46808e+06, dosed compound name 14C-Epirubicin, route intravenous, sampling time 0-1 h; conditions: in vivo
[12] = as §3; type: ADME, organism-based, SD; design: dose 1 mg.Kg-1, dosed compound id 2.46808e+06, dosed compound name 14C-Epirubicin, route intravenous, sampling time 0-4 h; conditions: in vivo
[13] = as §5; type: ADME, organism-based, SD; design: dose 1 mg.Kg-1, dosed compound id 2.46808e+06, dosed compound name 14C-Epirubicin, route intravenous, sampling time 0-48 h; conditions: in vivo
[14] = as §4; type: ADME, organism-based, SD, Feces; design: dose 0.45 ug.eq.Kg-1, dosed compound id 2.46808e+06, dosed compound name 14C-Epirubicin, route intravenous, sampling time 0-24 h, study doses 0.45 ug.eq.Kg-1; conditions: in vivo
[15] = (§6) Excretory balance of radioactivity in bile following intravenous 14C-epirubicin at 0.45 ug.eq.Kg-1 dose in rat; type: ADME, organism-based, SD; design: dose 0.45 ug.eq.Kg-1, dosed compound id 2.46808e+06, dosed compound name 14C-Epirubicin, route intravenous, sampling time 0-8 h, study doses 0.45 ug.eq.Kg-1; conditions: in vivo
[16] = as §5; type: ADME, organism-based, SD; design: dose 1 mg.Kg-1, dosed compound id 2.46808e+06, dosed compound name 14C-Epirubicin, route intravenous, sampling time 0-12 h; conditions: in vivo
[17] = as §6; type: ADME, organism-based, SD; design: dose 0.45 ug.eq.Kg-1, dosed compound id 2.46808e+06, dosed compound name 14C-Epirubicin, route intravenous, sampling time 0-1 h, study doses 0.45 ug.eq.Kg-1; conditions: in vivo
[18] = as §1; type: ADME, organism-based, SD, Feces; design: dose 1 mg.Kg-1, dosed compound id 2.46808e+06, dosed compound name 14C-Epirubicin, route intravenous, sampling time 0-12 h; conditions: in vivo
[19] = as §4; type: ADME, organism-based, SD, Feces; design: dose 0.45 ug.eq.Kg-1, dosed compound id 2.46808e+06, dosed compound name 14C-Epirubicin, route intravenous, sampling time 0-48 h, study doses 0.45 ug.eq.Kg-1; conditions: in vivo
[20] = as §3; type: ADME, organism-based, SD; design: dose 1 mg.Kg-1, dosed compound id 2.46808e+06, dosed compound name 14C-Epirubicin, route intravenous, sampling time 0-8 h; conditions: in vivo
[21] = as §2; type: ADME, organism-based, SD; design: dose 0.45 ug.eq.Kg-1, dosed compound id 2.46808e+06, dosed compound name 14C-Epirubicin, route intravenous, sampling time 0-24 h, study doses 0.45 ug.eq.Kg-1; conditions: in vivo
[22] = as §3; type: ADME, organism-based, SD; design: dose 1 mg.Kg-1, dosed compound id 2.46808e+06, dosed compound name 14C-Epirubicin, route intravenous, sampling time 0-6 h; conditions: in vivo
[23] = as §2; type: ADME, organism-based, SD; design: dose 0.45 ug.eq.Kg-1, dosed compound id 2.46808e+06, dosed compound name 14C-Epirubicin, route intravenous, sampling time 0-1 h, study doses 0.45 ug.eq.Kg-1; conditions: in vivo
[24] = as §1; type: ADME, organism-based, SD, Feces; design: dose 1 mg.Kg-1, dosed compound id 2.46808e+06, dosed compound name 14C-Epirubicin, route intravenous, sampling time 0-4 h; conditions: in vivo
[25] = as §1; type: ADME, organism-based, SD, Feces; design: dose 1 mg.Kg-1, dosed compound id 2.46808e+06, dosed compound name 14C-Epirubicin, route intravenous, sampling time 0-6 h; conditions: in vivo
[26] = as §6; type: ADME, organism-based, SD; design: dose 0.45 ug.eq.Kg-1, dosed compound id 2.46808e+06, dosed compound name 14C-Epirubicin, route intravenous, sampling time 0-24 h, study doses 0.45 ug.eq.Kg-1; conditions: in vivo
[27] = Excretion of radioactivity in faeces following single intravenous 14C-epirubicin at 75 mg.m-2 dose in cancer patients; type: ADME, organism-based, Feces; design: dose 75 mg.m-2, dosed compound id 2.46808e+06, dosed compound name 14C-Epirubicin, regimen Single, sampling time 10 Day; conditions: human, in vivo, at 75 mg/m2
[28] = as §5; type: ADME, organism-based, SD; design: dose 1 mg.Kg-1, dosed compound id 2.46808e+06, dosed compound name 14C-Epirubicin, route intravenous, sampling time 0-8 h; conditions: in vivo
[29] = as §6; type: ADME, organism-based, SD; design: dose 0.45 ug.eq.Kg-1, dosed compound id 2.46808e+06, dosed compound name 14C-Epirubicin, route intravenous, sampling time 0-4 h, study doses 0.45 ug.eq.Kg-1; conditions: in vivo
[30] = as §5; type: ADME, organism-based, SD; design: dose 1 mg.Kg-1, dosed compound id 2.46808e+06, dosed compound name 14C-Epirubicin, route intravenous, sampling time 0-24 h; conditions: in vivo
[31] = as §2; type: ADME, organism-based, SD; design: dose 0.45 ug.eq.Kg-1, dosed compound id 2.46808e+06, dosed compound name 14C-Epirubicin, route intravenous, sampling time 0-8 h, study doses 0.45 ug.eq.Kg-1; conditions: in vivo
[32] = as §6; type: ADME, organism-based, SD; design: dose 0.45 ug.eq.Kg-1, dosed compound id 2.46808e+06, dosed compound name 14C-Epirubicin, route intravenous, sampling time 0-2 h, study doses 0.45 ug.eq.Kg-1; conditions: in vivo
[33] = as §4; type: ADME, organism-based, SD, Feces; design: dose 0.45 ug.eq.Kg-1, dosed compound id 2.46808e+06, dosed compound name 14C-Epirubicin, route intravenous, sampling time 0-2 h, study doses 0.45 ug.eq.Kg-1; conditions: in vivo
[34] = as §3; type: ADME, organism-based, SD; design: dose 1 mg.Kg-1, dosed compound id 2.46808e+06, dosed compound name 14C-Epirubicin, route intravenous, sampling time 0-48 h; conditions: in vivo
[35] = as §6; type: ADME, organism-based, SD; design: dose 0.45 ug.eq.Kg-1, dosed compound id 2.46808e+06, dosed compound name 14C-Epirubicin, route intravenous, sampling time 0-48 h, study doses 0.45 ug.eq.Kg-1; conditions: in vivo
[36] = as §5; type: ADME, organism-based, SD; design: dose 1 mg.Kg-1, dosed compound id 2.46808e+06, dosed compound name 14C-Epirubicin, route intravenous, sampling time 0-1 h; conditions: in vivo
[37] = as §4; type: ADME, organism-based, SD, Feces; design: dose 0.45 ug.eq.Kg-1, dosed compound id 2.46808e+06, dosed compound name 14C-Epirubicin, route intravenous, sampling time 0-8 h, study doses 0.45 ug.eq.Kg-1; conditions: in vivo
[38] = as §6; type: ADME, organism-based, SD; design: dose 0.45 ug.eq.Kg-1, dosed compound id 2.46808e+06, dosed compound name 14C-Epirubicin, route intravenous, sampling time 0-6 h, study doses 0.45 ug.eq.Kg-1; conditions: in vivo
[39] = as §1; type: ADME, organism-based, SD, Feces; design: dose 1 mg.Kg-1, dosed compound id 2.46808e+06, dosed compound name 14C-Epirubicin, route intravenous, sampling time 0-1 h; conditions: in vivo
[40] = as §2; type: ADME, organism-based, SD; design: dose 0.45 ug.eq.Kg-1, dosed compound id 2.46808e+06, dosed compound name 14C-Epirubicin, route intravenous, sampling time 0-4 h, study doses 0.45 ug.eq.Kg-1; conditions: in vivo
[41] = as §2; type: ADME, organism-based, SD; design: dose 0.45 ug.eq.Kg-1, dosed compound id 2.46808e+06, dosed compound name 14C-Epirubicin, route intravenous, sampling time 0-2 h, study doses 0.45 ug.eq.Kg-1; conditions: in vivo
[42] = as §4; type: ADME, organism-based, SD, Feces; design: dose 0.45 ug.eq.Kg-1, dosed compound id 2.46808e+06, dosed compound name 14C-Epirubicin, route intravenous, sampling time 0-1 h, study doses 0.45 ug.eq.Kg-1; conditions: in vivo
[43] = as §4; type: ADME, organism-based, SD, Feces; design: dose 0.45 ug.eq.Kg-1, dosed compound id 2.46808e+06, dosed compound name 14C-Epirubicin, route intravenous, sampling time 0-4 h, study doses 0.45 ug.eq.Kg-1; conditions: in vivo
[44] = as §5; type: ADME, organism-based, SD; design: dose 1 mg.Kg-1, dosed compound id 2.46808e+06, dosed compound name 14C-Epirubicin, route intravenous, sampling time 0-2 h; conditions: in vivo
[45] = Excretion of radioactivity in urine following single intravenous 14C-epirubicin at 75 mg.m-2 dose in cancer patients; type: ADME, organism-based; design: dose 75 mg.m-2, dosed compound id 2.46808e+06, dosed compound name 14C-Epirubicin, regimen Single, sampling time 10 Day; conditions: human, in vivo, at 75 mg/m2
[46] = as §1; type: ADME, organism-based, SD, Feces; design: dose 1 mg.Kg-1, dosed compound id 2.46808e+06, dosed compound name 14C-Epirubicin, route intravenous, sampling time 0-48 h; conditions: in vivo

## COc1cccc2c1C(=O)c1c(O)c3c(c(O)c1C2=O)C[C@@](O)(C(=O)CO)C[C@@H]3O[C@H]1C[C@H](N)[C@@H](O)[C@H](C)O1 [EPIRUBICIN]
[1]
  Radiolabel recovery: OUTCOME = Observed
[2]
  Radiolabel recovery: OUTCOME = Observed
[3]
  Radiolabel recovery: 30.19%
[4]
  Radiolabel recovery: OUTCOME = Observed
[5]
  Radiolabel recovery: OUTCOME = Observed
[6]
  Radiolabel recovery: 7.31%
[7]
  Radiolabel recovery: 38.44%
[8]
  WBC_CHANGE: 45%
[9]
  Radiolabel recovery: OUTCOME = Observed
[10]
  Radiolabel recovery: 18.13%
[11]
  Radiolabel recovery: 13.22%
[12]
  Radiolabel recovery: 22.93%
[13]
  Radiolabel recovery: 14.74%
[14]
  Radiolabel recovery: 26%
[15]
  Radiolabel recovery: 7.05%
[16]
  Radiolabel recovery: 8.56%
[17]
  Radiolabel recovery: 0.06%
[18]
  Radiolabel recovery: 1.77%
[19]
  Radiolabel recovery: 48.78%
[20]
  Radiolabel recovery: 28.39%
[21]
  Radiolabel recovery: 2.14%
[22]
  Radiolabel recovery: 25.25%
[23]
  Radiolabel recovery: OUTCOME = Observed
[24]
  Radiolabel recovery: OUTCOME = Observed
[25]
  Radiolabel recovery: 1.18%
[26]
  Radiolabel recovery: 14.72%
[27]
  Radiolabel recovery: 24%
[28]
  Radiolabel recovery: OUTCOME = Observed
[29]
  Radiolabel recovery: 2.01%
[30]
  Radiolabel recovery: 12%
[31]
  Radiolabel recovery: 0.54%
[32]
  Radiolabel recovery: 0.27%
[33]
  Radiolabel recovery: OUTCOME = Observed
[34]
  Radiolabel recovery: 47.72%
[35]
  Radiolabel recovery: 17.32%
[36]
  Radiolabel recovery: OUTCOME = Observed
[37]
  Radiolabel recovery: OUTCOME = Not detectable
[38]
  Radiolabel recovery: 5.17%
[39]
  Radiolabel recovery: OUTCOME = Observed
[40]
  Radiolabel recovery: OUTCOME = Observed
[41]
  Radiolabel recovery: OUTCOME = Observed
[42]
  Radiolabel recovery: OUTCOME = Observed
[43]
  Radiolabel recovery: OUTCOME = Observed
[44]
  Radiolabel recovery: OUTCOME = Observed
[45]
  Radiolabel recovery: 16%
[46]
  Radiolabel recovery: 4.44%
